Structures are written as SMILES.

This assay deals with human σ2 receptor (TMEM97) (Homo sapiens, UniProt Q5BJF2). Nature of the assay: biochemical. The class given is Expi293 membranes. The note with it: read-out: % of control remaining.
human σ2 receptor (TMEM97), sequence (Q5BJF2 whole entry): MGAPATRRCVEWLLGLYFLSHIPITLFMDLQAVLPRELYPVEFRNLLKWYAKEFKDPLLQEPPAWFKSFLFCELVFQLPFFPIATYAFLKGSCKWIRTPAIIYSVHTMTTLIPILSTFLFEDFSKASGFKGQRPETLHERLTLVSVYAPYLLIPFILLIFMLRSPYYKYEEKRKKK
Turning to `CC(C)CN1CCC(NC(=O)NNC(=O)C(=O)NC2CC2)CC1` [ZINC000045463977], the remaining activity at 1 µM is 107%.
For `CCCn1c(C)cc(/C=C(/C#N)C(=O)NCCN(C)Cc2ccccc2)c1C` [ZINC000064804934] the value was 85%; for `CC[C@@H](C)NC(=O)[C@@H](C)N1CCC(c2c[nH]c3ccccc23)CC1` [ZINC000073649189], 74.2%.
Turning to `C[C@H](C(=O)NCc1cc(Br)cs1)N1CCCCCC1` [ZINC000074484650], the remaining activity at 1 µM is 86.9%.
Regarding `c1cncc(-c2nc(N3CCC[C@H](N4CCCC4)C3)c3ccccc3n2)c1` [ZINC000076836015], the remaining activity at 1 µM was found to be 60.5%.
To `Cc1noc(-c2cccnc2NC2CCC(N3CCCCC3)CC2)n1` (stereo not drawn) [ZINC000080247921] belongs 24.7%; to `c1ccc(-c2csc(CN3CCC4(C3)OCCO4)c2)cc1` [ZINC000093013680], 89.6%; to `CC1CCC(N2CCN(CCOC(C)C)CC2)CC1` (stereo not drawn) [ZINC000115566238], 18.2%.
In the case of `O=C(Nc1cccc(OC(F)(F)F)c1)C(=O)N1CCC[C@@H](N2CCCC2)CC1` [ZINC000120571916], the remaining activity at 1 µM worked out at 17.7%.
To `N#Cc1csc(CN2CCC[C@H]2Cc2ccccc2)c1` [ZINC000124982852] belongs 89.7%; to `COc1ccccc1O[C@H](C)CN[C@@H](C)c1ccccc1OC` [ZINC000129576345], 14.2%; to `CN1CCN(c2ncc(CN3CCN(CC4CC4)CC3)cn2)CC1` [ZINC000130668661], 68.6%.
To `C[C@H](Cn1cc(Br)cn1)NCc1cn2cc(Cl)ccc2n1` [ZINC000131571127] belongs 76.6%.
On to `CN(C(=O)C[C@@H]1CSCCN1)[C@@H]1CCCN(c2cccnn2)C1` [ZINC000133744458], for which the remaining activity at 1 µM was 65.7%.
In the case of `C[C@@H](Cn1cc(Br)cn1)NCCOc1ccc2c(c1)OCO2` [ZINC000133991118], the remaining activity at 1 µM stood at 65.4%.
To `O=C(CCc1cc(Br)ccc1F)N1CC[C@@H](CN2CCCC2)C1` [ZINC000135482356] belongs 21.7%.
Regarding `O=C(NCc1ccc(F)cc1C(F)(F)F)[C@@H]1CC12CCNCC2` [ZINC000136880129], the remaining activity at 1 µM was 53.9%.
For `COC(=O)[C@@H](C)CS(=O)(=O)N[C@@H]1CCN(CC2CCCC2)C1` [ZINC000152090354] the value was 44.7%; for `O=C(CN1CC[C@]2(CCOC2)C1)N[C@@H](Cc1ccccc1)c1ccccc1` [ZINC000153400973], 99.4%; for `Cc1cc(C(C)(C)C)ccc1OC[C@@H](O)CN1CC[C@]2(CCOC2)C1` [ZINC000153451054], 17.2%.
To `C[C@H](N[C@@H](C)CN1CCN(C)CC1)c1ccc(-c2ccccc2)o1` [ZINC000155112667] belongs 33.8%; to `CS[C@@H]1CCC[C@H](NC(=O)NC2CCN([C@@H]3CCCC[C@@H]3O)CC2)C1` [ZINC000155998528], 30.9%; to `C[C@H]1C[C@@H](NC(=O)C(=O)Nc2cnn(CC(F)F)c2)CN1C1CC1` [ZINC000158577469], 111%.
`CC(C)[C@H](C(=O)NC[C@H](C[C@@H](C)O)c1ccccc1)N1CCCCC1` [ZINC000159130997]: the remaining activity at 1 µM is 108%.
To `FC(F)(F)c1ccc(-c2nc(CN3CC[C@H](N4CCCC4)C3)cs2)cc1` [ZINC000170742095] belongs 29.7%; to `O=C(Nc1ccc2ncsc2c1)C(=O)N1CCCN(C2CCCC2)CC1` [ZINC000172648663], 96.3%; to `COC(=O)[C@@H](NCC[C@H](C)N(C)Cc1ccccc1)c1cccc(C#N)c1` [ZINC000176805277], 41.6%.
For `C[C@H](c1ccccn1)N1CC=C(c2ccc(O)cc2)CC1` [ZINC000176995469] the value was 61.4%.
Take `O=C1Nc2ccccc2C12CCC(NCC1(O)CCOCC1)CC2` (stereo not drawn) [ZINC000178638284]: the remaining activity at 1 µM is 111%.
For `CCN(CC)[C@H]1CCN(Cc2ncc(Cl)cc2Cl)C1` [ZINC000182372239] the value was 34.6%.
For `C[C@H](CCNC(=O)N1CCO[C@H]([C@@H]2CCCO2)C1)N1CCCCC1` [ZINC000182663590] the value was 98%.
To `Cc1ccc([N+](=O)[O-])cc1[C@H](C)N1C[C@H]2CCC[C@@H]2C1` [ZINC000182842742] belongs 36.1%; to `N#Cc1ccccc1NC(=O)CCN1CCC(O)(c2c(F)cccc2F)CC1` [ZINC000186482223], 95.3%; to `C[C@H](Cn1ncc2ccccc2c1=O)N[C@H]1CC[C@H](Cc2ccccc2)C1` [ZINC000188287346], 0.9%.
For `O=C(NCCc1ccc(F)c(Br)c1)[C@H]1C[C@H](F)CN1` [ZINC000188412270], the remaining activity at 1 µM is 106%.
For `O=C1Nc2ccccc2CC[C@H]1N1CC[C@@H](COCc2ccccc2)C1` [ZINC000192043753] the value was 52.9%; for `COc1ccc2ccccc2c1-c1cc(CN2CCN(C[C@@H](C)O)C[C@H]2C)on1` [ZINC000192810020], 89%.
For `CC(C)(C)N1CCC(NC(=O)c2ncccc2Br)CC1` [ZINC000194878845] the value was 109%.
To `Cc1ccccc1NC(=O)CN1CCC[C@@H]1C[C@H](C)O` [ZINC000228149300] belongs 113%; to `N[C@@H](CC(=O)Nc1cccc(C(=O)N2CCCC2)c1)c1ccccc1` [ZINC000237909071], 89%; to `C[C@@H]1CCCN1CC(=O)NCC(=O)N[C@H](C)c1ccc(F)cc1` [ZINC000245453841], 114%.
As for `CC[C@H](C)CNC[C@H]1CCC[C@H]1NS(C)(=O)=O` [ZINC000245533477], the remaining activity at 1 µM stood at 98.5%.
To `CCN(C[C@@H]1CCN(Cc2ccccc2)C1)C(=O)[C@H]1CC(=O)N(C2CCCC2)C1` [ZINC000246894550] belongs 72.6%; to `COC(=O)C[C@H]1CCCN1C[C@@H](O)Cc1ccc(C(F)(F)F)cc1` [ZINC000247001079], 61.2%.
`O=C1[C@H](N2C[C@@H]3CCC[C@H]3C2)CCN1c1ccccc1Cl` [ZINC000247015101]: the remaining activity at 1 µM was determined as 73%.
`CN1CCC[C@@H]2CN(Cn3ccc(-c4ccc(Br)cc4)n3)CC[C@H]21` [ZINC000247147334]: the remaining activity at 1 µM worked out at 104%.
To `CN(C[C@@H](O)CCc1ccccc1)[C@H]1CCN(c2ccccc2F)C1=O` [ZINC000248559983] belongs 87.4%.
Consider `C[C@H]1CCN(CC#Cc2cccc(Cl)c2)[C@H]1CO` [ZINC000248917461], for which the remaining activity at 1 µM was 103%.
To `O[C@]1(CN[C@@H]2CC[C@@H](Cc3ccccc3)C2)CCSC1` [ZINC000249076038] belongs 30.5%; to `C[C@H]1CN/C(=N/Cc2cccc(OCc3ccccc3)c2)N1` [ZINC000261552362], 56.1%.
For `C=CCOCC(=O)N(CCN)CCc1ccccc1` [ZINC000261774189] the value was 108%; for `COc1ccc(Br)cc1C/N=C1/NC[C@@H](C)N1` [ZINC000262658947], 45.4%.
To `C=C(C)CN/C(N)=N/[C@H]1C[C@H](c2cccc(F)c2)C1` [ZINC000262856881] belongs 6.4%; to `Cc1ccc(NC(=O)CN2CCC[C@@H](C3OCCO3)C2)cc1Cl` [ZINC000263644082], 83.4%.
For the compound `COC1CCC(N(C)CC(=O)Nc2ccc3ccccc3c2)CC1` (stereo not drawn) [ZINC000265181994], the remaining activity at 1 µM is 102%.
For `Cc1cccnc1[C@H](NC(=O)N1CCN(C2CCC2)CC1)C(C)C` [ZINC000265281429] the value was 97.5%; for `N/C(=N\Cc1cccc2c1OCCCO2)NC1CCCC1` [ZINC000269280100], 11.1%.
For `COCC1(O)CCN(C[C@@H](O)Cn2cnc3cc(C)c(C)cc32)CC1` [ZINC000270395954] the value was 121%; for `CCCN(C)C[C@H]1CCN([C@H](C)C(=O)c2c[nH]c3ncccc23)C1` [ZINC000271284821], 28.3%; for `Cc1c(Br)cccc1C(=O)N1CC[C@@H]2CCN(C)C[C@H]21` [ZINC000272592294], 79.1%.
To `CN1CCC(C)(CNC(=O)Nc2ccc(Br)nc2)CC1` [ZINC000272631760] belongs 91.2%; to `CC[C@@]1(C)Oc2ccc(NC(=O)C(=O)NC[C@@H]3CCN(C)C3)cc2O1` [ZINC000276781830], 97.6%; to `COCCOc1ccc(NC(=O)C(=O)N2C[C@H]3CN(C)C[C@H]3C2)cn1` [ZINC000279187431], 105%.
With `Cc1noc(C)c1CNC(=O)C(=O)N1CCN(C2CCCC2)CC1` [ZINC000283462313], the remaining activity at 1 µM came out at 98.5%.
On to `COc1ccc(-c2ccccc2)cc1CNCCC1(O)CCOCC1` [ZINC000285662957], for which the remaining activity at 1 µM stood at 17.5%.
To `CCc1cccc(C)c1NC(=O)CN1C[C@@H](N2CCCC2)C[C@H]1C` [ZINC000285725404] belongs 115%.
For `CNC(=O)CC[C@H]1CCCCN1Cc1cc(-c2ccccc2)on1` [ZINC000286502332] the value was 139%; for `COC(=O)c1cccc(S(=O)(=O)N2CC[C@@H](N3CCCC3)[C@@H]2C)c1` [ZINC000286616311], 75%.
Take `CCc1nn(C)c(Cl)c1C(=O)N1CC[C@@H](N2CCNCC2)C1` [ZINC000286782676]: the remaining activity at 1 µM worked out at 132%.
Take `Cc1c(CNC(=O)C(=O)N2CC[C@@H](C3CCN(C)CC3)C2)cnn1C` [ZINC000287105318]: the remaining activity at 1 µM is 117%.
For `O[C@H]1c2ccccc2C[C@H]1N1Cc2cccc(Cl)c2C1` [ZINC000287374567] the value was 114%.
To `COC(=O)C[C@H]1CCCN1C[C@@H](O)Cc1cccc(Cl)c1` [ZINC000287581634] belongs 111%.

These data come from article doi:10.1101/2021.04.29.441652v1 (biorxiv, 2021).
